Measured values reported in patent publication US10688087B2, “Pharmaceutical compositions and therapeutic methods employing a combination of a manganese complex compound and a non-manganese complex form of the compound” (PLEDPHARMA AB, priority 2009, dated 2020).

How the values were obtained:
[1] = rats, i.v.; for effect on 0-24 h Zn excretion: 10 μmol/kg MnDPDP alone, with 20 μmol/kg b.w. DPDP, or 10 μmol/kg b.w. DPDP, n=2
Method: 10 male Wistar rats (approximately 250 g) were injected intravenously, via one of the tail veins, with either 0, 0.125, 0.250, 0.500 or 0.750 ml of a 10 mM DPDP formulation, corresponding to 0, 5, 10, 20 and 30 μmol/kg b.w. […] After injection, the rats were immediately placed in metabolic cages for urine collection over a period of 0-24 hours. The urine samples were then stored at −80° C. until Zn and Mn analyses. Before analyses, the samples were thawed and extensively shaken to obtain homogenous samples. A five ml aliquot was taken from each sample and 5 ml concentrated nitric acid was added. The samples were then resolved in a microwave oven and thereafter diluted with distilled water to a final volume of 50 ml. The zinc (Zn) and manganese (Mn) content of each sample were analyzed by ICP-MS. Results are presented as total 0-24 h urine Zn and Mn content (expressed as μmol/kg b.w.±S.E.M.).

[2] = Literature pharmacokinetics of i.v. MnDPDP (Toft et al., 1997): manganese release, urine Mn and Zn, metabolism; type: in vivo; conditions: humans, 10 μmol/kg b.w., rough recalculation of data of Toft et al.
[3] = rats, i.v.
Method: After injection, the rats were immediately placed in metabolic cages for urine collection over a period of 0-24 hours. To obtain basal content of manganese (Mn) in urine, two additional (control) rats were placed in metabolic cages for urine collection over the same period of time. The urine samples were then stored at −80° C. until Mn analysis. Before analysis, the samples were thawed and extensively shaken to obtain homogenous samples. A five ml aliquot was taken from each sample and 5 ml concentrated nitric acid was added. The samples were then resolved in a microwave oven and thereafter diluted with distilled water to a final volume of 50 ml. The Mn content of each sample was analyzed by ICP-MS (Inductively Coupled Plasma Mass Spectrometry). […] This sample was treated in an identical manner to that of the urine samples and analyzed for its Mn content. Results are presented as total 0-24 h urine Mn content (expressed as μmol/kg±S.E.M.) and as percentage (±S.E.M.) of the injected dose. The statistical difference between animals receiving MnDPDP alone and animals receiving MnDPDP and DPDP, with respect to excretion of manganese into the urine, was tested by an unpaired Student's t-test. A p-value lower than 0.05 was considered as a statistically significant difference.

[4] = rat, in vivo, ip
Method: Twenty-four hours later, the rats were killed and the brains were dissected out and stored at −80° C. until Mn analysis. […] Before analysis, each brain was resolved in 5 ml concentrated nitric acid plus 3 ml distilled water in a microwave oven, and thereafter diluted with distilled water to a final volume of 50 ml. The Mn and Zn content of each sample was analyzed by ICP-MS. Results are expressed as μg/g brain wet weight±S.E.M and percentage increase in Mn brain content. […] A p-value lower than 0.05 was considered as a statistically significant difference.

[5] = tested on: white blood cells; conditions: mice, 10 mg/kg b.w. MnDPDP (Alexandre et al., 2006); cited from earlier work
[6] = i.v., 10 μmol/kg b.w.; humans (Toft et al.) and rats (Hustvedt et al.); cited from earlier work
[7] = tested on: white blood cells; experiment: Paclitaxel-induced myelosuppression (leucopenia) in mice, blood cell counts (Example 5); type: in vivo, BALB/c female mice; conditions: i.p., paclitaxel 20 mg/kg b.w. on days 0, 2, 4, blood day 10
Method: To test the therapeutic efficacy, initial experiments were conducted in BALB/c female mice (15-20 g), as described by Alexandre et al., JNCI 2006; 98:236-244).
Five mice were treated in each group. Paclitaxel was administered on days 0, 2, and 4. […] Ten days after the first injection the mice were anesthetized and blood samples were withdrawn by heart puncture into EDTA-tubes and blood cell counting (including white blood cell count (WBC); absolute neutrophil (ANC), monocyte and lymphocyte count) was conducted on a CELL-DYN Sapphire analyzer, after the blood samples had been diluted 1:1. Some samples had to be discarded because of clotting but all groups included at least blood from 3 animals.

SMILES | effect of increasing doses of DPDP on 0-24 h Mn excretion ([1]; 0-30 μmol/kg b.w. DPDP) | effect on 0-24 h Zn excretion [1] | 0-24 h Zn excretion (saturation level) ([1]; at a dose of 10 μmol/kg b.w. DPDP) | renal zinc excretion [2] | amount of manganese released from the complex ([3]; as exemplified by Example 1) [%] | Mn excretion in urine during 0-24 h as percentage of the injected dose ([3]; 0.25 ml 10 mM MnDPDP ± 0.5 ml 10 mM DPDP, mean±S.E.M., n=7) [%] | Zn brain content [4] | percentage increase in brain Mn [4] [%] | amount of zinc in the urine up to 24 hours ([1]; 10 μmol/kg b.w. MnDPDP) | protection against paclitaxel-induced leucopenia [5] | manganese originating from the chelator that comes out in the urine [6] [%] | reduction of the various white blood cells [7] [%]
Cc1ncc(COP(=O)(O)O)c(CN(CCN(CC(=O)O)Cc2c(COP(=O)(O)O)cnc(C)c2O)CC(=O)O)c1O [DPDP, N,N′-bis-(pyridoxal-5-phosphate)-ethylenediamine-N,N′-diacetic acid] | just minor effects | doubles the zinc excretion | around 4 μmol/kg |  |  |  |  |  |  |  |  | 
Cc1ncc(COP(=O)(O)O)c(CN(CCN(CC(=O)O)Cc2c(COP(=O)(O)O)cnc(C)c2O)CC(=O)O)c1O.[Mn] [MnDPDP, Manganese N,N′-bis-(pyridoxal-5-phosphate)-ethylenediamine-N,N′-diacetic acid] |  | relatively small effect |  | approximately 3 μmol/kg b.w. | 85 | 15.7±1.1 | identical | 23.5 | about 2 μmol/kg b.w. | effectively protect | ≤ 20 | 
CC(=O)O[C@H]1C(=O)[C@@]2(C)[C@H]([C@H](OC(=O)c3ccccc3)[C@]3(O)C[C@H](OC(=O)[C@H](O)[C@@H](NC(=O)c4ccccc4)c4ccccc4)C(C)=C1C3(C)C)[C@]1(OC(C)=O)CO[C@@H]1C[C@@H]2O [Paclitaxel, paclitaxel] |  |  |  |  |  |  |  |  |  |  |  | ~50
